Assays:
[1] = target: T1, LRRK2 (Homo sapiens, UniProt Q5S007, D2017A); conditions: cited from earlier work
T1 construct: expressed in transfected cells; host or cells: HEK293 Flp-in T-REx, doxycycline-induced

[2] = system: LRRK2; assay: Western blot of LRRK2 phosphorylation sites, FLAG tagged LRRK2 in HEK293 T-Rex cells (FIG. 4); type: cell-based, human; conditions: kinase dead and inhibitor resistant mutant samples
Source text: Full length, FLAG tagged, wild-type or mutant LRRK2 (as indicated in FIG. 4) was expressed from a stable/inducible locus of HEK293 T-Rex cells (Invitrogen).

[3] = target: T2, LRRK2 (Homo sapiens, UniProt Q5S007); assay: Immunoblot of LRRK2 phosphosites after GFP immunoprecipitation from HEK293 T-REx cells expressing GFP-LRRK2 variants; type: cell-based; conditions: T-REx cells expressing active LRRK2; 1 μM LRRK2-IN1 for 90 minutes
Procedure: (§1) Protein concentrations were determined using the Bradford method with BSA as the standard.

[4] = target: T1, LRRK2; assay: as above; type: cell-based; conditions: kinase inactive LRRK2 mutants; after LRRK2-IN1 treatment
Procedure: as §1

[5] = target: 14-3-3 binding to LRRK2 (Homo sapiens, UniProt Q5S007); assay: 14-3-3 overlay (far-western) assay of immunoprecipitated GFP-LRRK2; type: cell-based; conditions: 1 μM LRRK2-IN1 for 90 minutes
Procedure: The indicated variants of full-length GFP-tagged LRRK2 were expressed from a stable and inducible locus in HEK293 T-REx cells and subjected to immunoprecipitation analysis. Immunoprecipitates were subjected to immunoblot analysis with anti-GFP, and anti-phospho-Ser910 (αpS910), anti-phospho-Ser935 (αpS935), anti-phospho-Ser955 (αpS955), and anti-phospho-Ser973 (αpS973) antibodies. 14-3-3 binding to the LRRK2 variants was assessed by 14-3-3 far-western blot analyses. All blots were co-probed with phospho antibody and GFP (total protein) monoclonal antibody and analyzed by Odyssey® LI-COR analysis; a representative total GFP blot is shown.
The Nanotrap GFP-Trap_A matrix was from ChromoTek (GTA-20). […] LiCOR Dyelight labelled 14-3-3 protein (recombinant, His tagged BMH1, a kind gift of Dr. Dario Alessi) was prepared as per the manufacturer's instructions and used to detect 14-3-3 binding. […] Fluorescent secondary antibodies were from Li-COR (Lincoln Nebr.) or Rockland immunochemicals (Rockland Ill.) LRRK2 Immunoprecipitation assays. Cell lysates were prepared in Lysis buffer (1.0 ml per 15 cm dish) and subjected to immunoprecipitation with GFP-trapA beads at 10 ul beads per 1.0 ml lysate for 1 hr. […]

[6] = system: GFP-LRRK2; assay: Fluorescence microscopy of GFP-LRRK2 localization in HEK-293 Flp-in T-REx cells; type: cell-based, human; conditions: wild-type GFP-LRRK2; 1 μM LRRK2-IN1 for 90 minutes
Procedure: T-REx cells lines harboring the indicated LRRK2 variants were induced for 24 h with 1 μg/ml doxycycline to induce expression of GFP-LRRK2. After induction, cells were exposed to vehicle control (DMSO) or 1 μM LRRK2-IN1 for 90 minutes, then fixed with paraformaldehyde and GFP fluorescence was imaged. Representative fluorescent micrographs of cultures for the indicated phosphosite mutants in the presence and absence of inhibitor are shown, localization analysis was performed at least three times. White scale bar represents 10 microns.
HEK-293 Flp-in T-REx cells harbouring GFP tagged LRRK2 and PD associated mutations were plated in 4-well glass bottom, CC2 coated chamber slides (Nunc). One day after plating, cells were induced with 1 μg/ml doxycycline and 24 hr later, cells were fixed in 4% paraformaldehyde buffered in phosphate buffered saline (purchased from Electron Microscopy Sciences, #15710). Cells were imaged under on a Nikon TiE microscope with a 60× objective.

[7] = target: T2, LRRK2; assay: Immunoprecipitation of FLAG-tagged wild-type LRRK2 from treated HEK 293 cells, in vitro autophosphorylation kinase assay, phosphosite immunoblot; type: cell-based; conditions: transient expression, 1 μM LRRK2-IN1 for 90 minutes
Source text: Immunoprecipitates were extensively washed then subjected to in vitro kinase assay in the presence or absence of ATP,in the presence or absence of LRRK2-1N1. Reaction products were immunoblotted with antiphospho-Ser1491 (αpThr1491), anti-phospho-Ser910 (αpS910), anti-phospho-Ser935 (αpS935), anti-phospho-Ser955 (αpS955), and anti-phospho-Ser973 (αpS973) antibodies.
Immunoprecipitation Kinase Assay conditions. Wild-type LRRK2 was transiently expressed in HEK293 cells using polyethylenimine for approximately 36 hours, then cells were treated with DMSO or 1 μM LRRK2-IN1 for 90 minutes. Lysates were then subjected to immunoprecipitation with anti-FLAG M2 agarose at a ratio of 1 μl beads per 100 μg of lysate for 2 hours.

T2 sequence (Q5S007 whole entry): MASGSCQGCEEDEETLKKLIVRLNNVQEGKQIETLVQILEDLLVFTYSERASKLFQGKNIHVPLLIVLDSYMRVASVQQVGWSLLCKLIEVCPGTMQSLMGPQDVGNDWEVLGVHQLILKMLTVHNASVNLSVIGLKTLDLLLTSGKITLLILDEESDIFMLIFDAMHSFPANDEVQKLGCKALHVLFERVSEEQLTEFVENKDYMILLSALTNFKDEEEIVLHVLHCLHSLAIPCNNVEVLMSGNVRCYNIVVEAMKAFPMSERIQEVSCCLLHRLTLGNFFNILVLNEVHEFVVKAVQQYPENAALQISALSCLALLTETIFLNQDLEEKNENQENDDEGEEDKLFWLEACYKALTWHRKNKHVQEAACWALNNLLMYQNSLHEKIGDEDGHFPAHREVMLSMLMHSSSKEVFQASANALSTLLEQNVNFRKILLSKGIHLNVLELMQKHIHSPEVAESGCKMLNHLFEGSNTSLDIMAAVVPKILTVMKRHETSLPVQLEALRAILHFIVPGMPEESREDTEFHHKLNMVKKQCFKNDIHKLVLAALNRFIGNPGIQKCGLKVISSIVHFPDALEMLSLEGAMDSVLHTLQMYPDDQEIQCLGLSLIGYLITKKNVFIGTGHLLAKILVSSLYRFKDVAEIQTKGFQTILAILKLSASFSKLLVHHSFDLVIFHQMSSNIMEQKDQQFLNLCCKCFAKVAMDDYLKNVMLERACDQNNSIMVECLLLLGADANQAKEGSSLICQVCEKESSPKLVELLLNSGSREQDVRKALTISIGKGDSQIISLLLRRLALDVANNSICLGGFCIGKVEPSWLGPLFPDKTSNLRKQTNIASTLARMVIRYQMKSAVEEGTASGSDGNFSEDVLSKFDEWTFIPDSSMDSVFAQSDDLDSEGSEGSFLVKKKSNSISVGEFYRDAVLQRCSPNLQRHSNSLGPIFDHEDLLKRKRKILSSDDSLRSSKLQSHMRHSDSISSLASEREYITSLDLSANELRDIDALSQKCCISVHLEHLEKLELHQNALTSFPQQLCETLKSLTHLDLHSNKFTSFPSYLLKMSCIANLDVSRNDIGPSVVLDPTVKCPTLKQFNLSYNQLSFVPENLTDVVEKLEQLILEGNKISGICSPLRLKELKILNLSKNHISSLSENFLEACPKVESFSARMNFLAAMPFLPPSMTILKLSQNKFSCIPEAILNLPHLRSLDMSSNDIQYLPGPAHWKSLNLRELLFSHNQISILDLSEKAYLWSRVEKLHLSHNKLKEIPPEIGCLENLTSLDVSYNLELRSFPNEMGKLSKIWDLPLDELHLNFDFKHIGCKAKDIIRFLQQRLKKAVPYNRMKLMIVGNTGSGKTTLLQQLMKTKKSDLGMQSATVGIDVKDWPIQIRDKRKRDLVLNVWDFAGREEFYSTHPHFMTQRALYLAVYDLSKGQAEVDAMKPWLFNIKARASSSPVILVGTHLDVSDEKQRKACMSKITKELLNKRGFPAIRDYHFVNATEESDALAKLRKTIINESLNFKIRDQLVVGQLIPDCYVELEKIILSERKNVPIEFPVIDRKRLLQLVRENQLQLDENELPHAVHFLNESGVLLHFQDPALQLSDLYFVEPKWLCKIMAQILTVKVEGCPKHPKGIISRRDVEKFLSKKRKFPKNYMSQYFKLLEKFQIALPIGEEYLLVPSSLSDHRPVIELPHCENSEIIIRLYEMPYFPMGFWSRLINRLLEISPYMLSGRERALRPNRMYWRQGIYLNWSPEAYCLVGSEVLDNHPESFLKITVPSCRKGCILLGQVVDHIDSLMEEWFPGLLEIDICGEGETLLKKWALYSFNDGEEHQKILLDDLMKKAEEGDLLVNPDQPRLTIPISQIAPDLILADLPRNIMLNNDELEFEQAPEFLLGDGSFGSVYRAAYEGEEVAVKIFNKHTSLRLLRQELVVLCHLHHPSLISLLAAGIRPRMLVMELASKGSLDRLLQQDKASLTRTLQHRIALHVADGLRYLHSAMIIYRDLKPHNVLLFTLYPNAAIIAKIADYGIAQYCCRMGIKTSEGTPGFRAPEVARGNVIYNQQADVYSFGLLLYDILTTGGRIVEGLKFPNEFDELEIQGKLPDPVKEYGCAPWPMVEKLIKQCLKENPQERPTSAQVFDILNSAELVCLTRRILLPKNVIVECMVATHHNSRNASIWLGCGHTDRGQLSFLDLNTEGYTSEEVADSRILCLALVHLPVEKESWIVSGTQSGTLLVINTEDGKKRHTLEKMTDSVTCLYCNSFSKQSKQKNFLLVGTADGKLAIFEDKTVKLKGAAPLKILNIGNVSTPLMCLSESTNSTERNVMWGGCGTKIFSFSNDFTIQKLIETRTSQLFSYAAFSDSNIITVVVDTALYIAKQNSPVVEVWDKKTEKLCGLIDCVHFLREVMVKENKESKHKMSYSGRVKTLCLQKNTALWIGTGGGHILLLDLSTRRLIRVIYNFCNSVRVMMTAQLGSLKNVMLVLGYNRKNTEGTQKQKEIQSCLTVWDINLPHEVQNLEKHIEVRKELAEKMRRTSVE
T1 sequence (Q5S007 whole entry D2017A): as the sequence (Q5S007 whole entry) above, with D2017A counted along it
Chain of 14-3-3 binding to LRRK2 (Q5S007 whole entry): as the sequence (Q5S007 whole entry) above

phosphorylation of Serines 910/935 [3]	phosphorylation of Serines 955 and 973 [3]	phosphorylation of Serines 910 and 935 or 955 and 973 in kinase inactive mutants [4]	direct 14-3-3 association with LRRK2 [5]	SMILES	basal level of LRRK2 phosphorylation at 910/935 in kinase inactive mutants [1]	specificity of the inhibitor effects on phosphorylation of serines 955 and 973 [2]	localization of GFP tagged LRRK2 [6]	phosphorylation of Ser910, Ser935, Ser955 and Ser973 of FLAG tagged wild-type LRRK2 [7]
				Cc1cncc2cccc(S(=O)(=O)N3CCCNC[C@@H]3C)c12 [H-1152]	did not perturb			
complete dephosphorylation	dephosphorylation	no change was observed	reduced direct 14-3-3 association	COc1cc(C(=O)N2CCC(N3CCN(C)CC3)CC2)ccc1Nc1ncc2c(n1)N(C)c1ccccc1C(=O)N2C [LRRK2-IN1]		specific to LRRK2	re-localization of the GFP tagged enzyme to intracellular puncta, large accumulations and microtubule like structures	dephosphorylated at the corresponding residues

From patent publication US9417239B2, “Assay to determine LRRK2 activity in parkinson's disease” (PARKINSON'S INSTITUTE, priority 2011, dated 2016)
